Measured values as given in ChEMBL document CHEMBL3822429, “Identification of novel EZH2 inhibitors through pharmacophore-based virtual screening and biological assays” (Bioorg Med Chem Lett, 2016).

biological target: T1, Histone-lysine N-methyltransferase EZH2 (Homo sapiens, UniProt Q15910); assay: Inhibition of PRC2 EZH2 sub unit (unknown origin) assessed as inhibition of SAM-mediated methyl transfer process at 50 uM preincubated for 15 mins followed by addition of H3K27me and [3H]SAM as substrate measured after 90 mins by radioactive methylation assay
Target sequence in this assay (Q15910 whole entry, looked up): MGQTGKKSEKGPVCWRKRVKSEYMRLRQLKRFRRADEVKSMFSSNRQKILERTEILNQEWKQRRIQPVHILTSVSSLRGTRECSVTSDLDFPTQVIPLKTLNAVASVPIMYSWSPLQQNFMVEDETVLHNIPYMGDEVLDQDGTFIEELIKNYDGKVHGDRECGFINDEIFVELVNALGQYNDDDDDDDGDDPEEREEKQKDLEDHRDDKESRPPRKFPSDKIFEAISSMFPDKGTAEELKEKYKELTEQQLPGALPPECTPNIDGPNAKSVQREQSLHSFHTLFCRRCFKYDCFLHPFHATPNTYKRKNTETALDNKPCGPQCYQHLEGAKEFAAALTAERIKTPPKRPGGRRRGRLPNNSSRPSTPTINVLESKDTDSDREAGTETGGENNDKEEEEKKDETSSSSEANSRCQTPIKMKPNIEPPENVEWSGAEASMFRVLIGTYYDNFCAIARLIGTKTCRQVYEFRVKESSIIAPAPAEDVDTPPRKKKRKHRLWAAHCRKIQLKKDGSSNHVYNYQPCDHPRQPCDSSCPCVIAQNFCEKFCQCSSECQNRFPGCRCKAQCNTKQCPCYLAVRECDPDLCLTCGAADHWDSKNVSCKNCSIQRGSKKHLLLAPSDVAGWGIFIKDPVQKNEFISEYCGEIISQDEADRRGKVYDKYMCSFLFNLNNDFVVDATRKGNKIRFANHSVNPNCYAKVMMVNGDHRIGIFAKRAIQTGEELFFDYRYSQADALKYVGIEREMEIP

SMILES | inhibition [%]
NC(=O)c1ccc(N=C2C(=O)Nc3ccc([N+](=O)[O-])cc32)cc1 | 6
OCCNCC(O)Cn1c2ccc(Br)cc2c2cc(Br)ccc21 (configuration not stated) | -9
Cc1ccc2c(c1)C1CN(C)CCC1N2C(=O)c1ccc2ccccc2c1 (configuration not stated) | 0
Cc1cc(C)nc(NC2=NCCS2)n1 | 16
COc1ccc2nc(Nc3nc(O)cc(CSc4nnc(C)s4)n3)nc(C)c2c1 | -9
Cc1cc(O)nc(Nc2ccccc2)n1 | -2
NS(=O)(=O)c1ccc(NC(=O)CN2C(=O)c3cccc4cccc(c34)C2=O)cc1 | 14
CCN(CC)c1ccc2cc(-c3nnc(Nc4cc(OC)ccc4OC)o3)c(=O)oc2c1 | 25
Cc1ccc2c(c1)C1CN(C)CCC1N2C(=O)Cc1ccc(Cl)cc1 (configuration not stated) | 4
O=C1C(Cc2ccccc2)=C(O)c2cccc3c2C1=C(O)CC3 | 11
O=C(c1cnn2c1NC(c1ccc(Br)cc1)CC2C(F)(F)F)N1CCN2CCCC2C1 (configuration not stated) | -2
O=C(NC1CCSC1=O)c1cccc(C(=O)NC2CCSC2=O)c1 (configuration not stated) | 6
Cc1cc(C)nc(Nc2n[nH]c(-c3ccccc3Cl)n2)n1 | 17
N/N=C1/CCCc2c1[nH]c1ccc(F)cc21 | 18
Cc1ccc2nc(N=C(N)N)nc(C)c2c1 | 3
CCOC(=O)C[n+]1ccc2c([nH]c3ccccc32)c1C | 7
N#C/C(=C/c1ccc(-c2ccc(C(N)=O)cc2)o1)c1nc2ccccc2[nH]1 | 41

Next, values leading:

inhibition [%] | SMILES
9 | Cn1c(=O)cc2c3c(c(N4CCOCC4)ccc31)C(=O)c1ccccc1-2
52 | Cn1c(-c2ccc(C=O)o2)nc2c3ccccc3c3ccccc3c21
28 | Cc1ccc2nc(Nc3nc(O)cc(CSc4nnnn4-c4ccccc4)n3)nc(C)c2c1
5 | COc1ccc(-n2c(SCC(=O)c3ccc(Cl)cc3)nc3ccccc3c2=O)cc1
4 | CC1=CC(C)(C)Oc2c1c(=O)n(-c1ccccc1)c(=S)n2-c1ccc(C)cc1
29 | O=C1CC(=C2c3ccccc3-c3ccccc32)C(=O)N1CCN1CCN(c2cccc(Cl)c2)CC1
1 | CC12CCCc3c(-c4ncn[nH]4)c(-c4ccccc4)c(=O)n(c31)-c1ccccc12 (configuration not stated)
2 | O=C(/C(=C(/[O-])c1ccc(Cl)cc1)[n+]1ccc2ccccc2c1)c1ccccc1
19 | Cc1ccc2c(C)nc(Nc3nc(O)cc(CSc4nnnn4-c4ccccc4)n3)nc2c1
-1 | Cc1ccc(C(=O)CSc2nc3sc4c(c3c(=O)n2-c2ccccc2)CCCC4)s1
2 | CC(=O)Nc1cc(C(=O)OC(C(=O)c2ccccc2)c2ccccc2)ccc1C (configuration not stated)
72 | COc1ccc2nc(Nc3nc(O)cc(CSc4nnnn4-c4ccccc4)n3)nc(C)c2c1
-6 | NC(=O)CCN1CCN(CCOC2Cc3cc(Cl)ccc3Sc3ccccc32)CC1 (configuration not stated)
9 | COc1ccc(C(=O)C(OC(=O)c2ccc(C)c(NC(C)=O)c2)c2ccccc2)cc1 (configuration not stated)
34 | O=C1c2ccccc2-c2cccc3c2c1cc1ccccc13
-1 | CCOc1ccc(NC(=N)Nc2nc(O)cc(CSc3nnnn3-c3ccccc3)n2)cc1
-2 | O=c1c(-c2ccccc2)c(O)c2c(n1-c1ccccc1)CCCC2
0 | COc1ccc(CN2CCN(c3cc(C)c(C#N)c4nc5ccccc5n34)CC2)cc1
-7 | CN1c2ccccc2Oc2nnc(N3CCN(C(c4ccccc4)c4ccccc4)CC3)cc21
0 | Cc1ccc(-n2nc3cc(C)c(NC(=O)NC(=O)Cc4ccccc4)cc3n2)cc1
9 | O=C1c2ccccc2NC(c2c[nH]nc2-c2ccccc2)N1O (configuration not stated)

test system: DB; assay: Antiproliferative activity against human DB cells expressing EZH2 mutant assessed as growth inhibition measured after 72 hrs by AlamaBlue assay

SMILES | IC50 [µM]
COc1ccc2nc(Nc3nc(O)cc(CSc4nnnn4-c4ccccc4)n3)nc(C)c2c1 | 32.8

biological target: DNA (cytosine-5)-methyltransferase 1 (Homo sapiens) (UniProt P26358); assay: Inhibition of human DNMT1 assessed as DNA methylation at 50 uM preincubated for 15 mins followed by addition of poly(dI-dC) and [3H]SAM as substrate measured after 2 hrs by radioactive methylation assay
Sequence (P26358 whole entry): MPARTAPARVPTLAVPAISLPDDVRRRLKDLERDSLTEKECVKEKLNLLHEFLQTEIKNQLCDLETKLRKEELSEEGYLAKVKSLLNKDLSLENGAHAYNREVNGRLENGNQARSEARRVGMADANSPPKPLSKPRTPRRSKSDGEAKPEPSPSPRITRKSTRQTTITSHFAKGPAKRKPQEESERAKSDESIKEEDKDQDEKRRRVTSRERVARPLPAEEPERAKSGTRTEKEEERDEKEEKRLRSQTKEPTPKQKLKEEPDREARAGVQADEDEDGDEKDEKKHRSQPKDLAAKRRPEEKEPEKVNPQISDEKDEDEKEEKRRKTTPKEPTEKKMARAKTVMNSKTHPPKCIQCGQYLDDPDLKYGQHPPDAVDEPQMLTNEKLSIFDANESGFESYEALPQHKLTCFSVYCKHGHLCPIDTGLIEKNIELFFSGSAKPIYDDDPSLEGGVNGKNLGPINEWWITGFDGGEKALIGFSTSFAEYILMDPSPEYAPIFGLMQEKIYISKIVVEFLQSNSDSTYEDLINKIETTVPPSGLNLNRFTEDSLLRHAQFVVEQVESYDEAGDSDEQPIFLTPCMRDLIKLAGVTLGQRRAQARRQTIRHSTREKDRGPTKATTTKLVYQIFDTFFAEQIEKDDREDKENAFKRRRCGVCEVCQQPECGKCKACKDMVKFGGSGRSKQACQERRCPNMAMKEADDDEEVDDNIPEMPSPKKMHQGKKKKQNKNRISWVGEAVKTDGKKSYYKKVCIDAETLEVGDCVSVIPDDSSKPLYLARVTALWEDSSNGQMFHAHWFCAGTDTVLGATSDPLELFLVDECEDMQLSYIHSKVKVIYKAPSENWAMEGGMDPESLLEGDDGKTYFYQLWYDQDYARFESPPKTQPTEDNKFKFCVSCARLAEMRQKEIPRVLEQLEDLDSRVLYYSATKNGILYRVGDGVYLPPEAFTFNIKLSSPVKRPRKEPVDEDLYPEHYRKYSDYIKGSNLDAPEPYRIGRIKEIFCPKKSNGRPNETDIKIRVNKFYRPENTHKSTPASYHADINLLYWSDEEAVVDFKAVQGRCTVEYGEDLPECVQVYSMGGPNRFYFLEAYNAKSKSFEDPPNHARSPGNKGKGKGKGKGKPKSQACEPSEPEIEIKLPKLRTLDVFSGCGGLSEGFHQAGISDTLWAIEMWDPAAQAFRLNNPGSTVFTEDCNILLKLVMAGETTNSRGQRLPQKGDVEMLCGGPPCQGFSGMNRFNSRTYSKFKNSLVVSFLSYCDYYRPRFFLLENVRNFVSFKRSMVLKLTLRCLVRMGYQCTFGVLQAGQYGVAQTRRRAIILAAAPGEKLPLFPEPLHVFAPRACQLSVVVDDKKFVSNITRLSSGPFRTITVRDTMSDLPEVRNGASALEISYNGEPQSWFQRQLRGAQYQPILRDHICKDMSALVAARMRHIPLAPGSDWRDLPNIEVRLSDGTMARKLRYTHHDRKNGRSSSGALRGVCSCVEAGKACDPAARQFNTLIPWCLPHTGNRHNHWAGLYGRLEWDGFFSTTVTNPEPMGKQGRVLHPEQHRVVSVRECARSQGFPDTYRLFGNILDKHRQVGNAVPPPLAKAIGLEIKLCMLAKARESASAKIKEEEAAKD

inhibition [%] | SMILES
0 | COc1ccc2nc(Nc3nc(O)cc(CSc4nnnn4-c4ccccc4)n3)nc(C)c2c1

test system: not listed separately; assay: Antiproliferative activity against human Toledo cells expressing wild-type EZH2 assessed as growth inhibition measured after 72 hrs by AlamaBlue assay

SMILES | IC50 [µM]
COc1ccc2nc(Nc3nc(O)cc(CSc4nnnn4-c4ccccc4)n3)nc(C)c2c1 | 24.1

biological target: T1, Histone-lysine N-methyltransferase EZH2; assay: Inhibition of PRC2 EZH2 sub unit (unknown origin) assessed as inhibition of SAM-mediated methyl transfer process preincubated for 15 mins followed by addition of H3K27me and [3H]SAM as substrate measured after 90 mins by radioactive methylation assay
Target sequence in this assay (Q15910 whole entry): as the sequence (Q15910 whole entry, looked up) above

IC50 [µM] | SMILES
22.6 | COc1ccc2nc(Nc3nc(O)cc(CSc4nnnn4-c4ccccc4)n3)nc(C)c2c1
